According to patent US10059694B2, “2-aminopyrimidine compound and pharmaceutical composition and use thereof” (Shanghai Institute of Materia Medica, Chinese Academy of …, priority 2014, dated 2018):

Assays:
EGFR^T790M/L858R = target: T1, EGFR^T790M/L858R (Homo sapiens, UniProt P00533, L858R/T790M); assay: kinase inhibitory activity test (ELISA), EGFR^T790M/L858R; type: biochemical; conditions: ELISA, ATP 5 μM, 1 hour at 37° C.
T1 construct: purchased Millipore
Method: (§1) The enzyme substrate poly (glutamic acid, tyrosine)4:1 (Sigma) was diluted with potassium-free PBS (10 mM sodium phosphate buffer, 150 mM NaCl, pH 7.2-7.4) to 20 μg/mL, plate coated with 125 μL/well, reacted for 12-16 hours at 37° C. After the liquid in the wells was discarded, the plates were washed three times with 200 μL/well of T-PBS (PBS containing 0.1% Tween-20), and each time for 5 minutes, and then dried for 1-2 hours in an oven at 37° C. 50 μL of ATP solution diluted with reaction buffer (50 mM HEPES pH 7.4, 50 mM MgCl2, 5 mM MnCl2, 0.2 mM Na3VO4, 1 mM DTT) was added into each well and the final concentration was 5 μM. The compounds were diluted with 1% DMSO to suitable concentrations and were added at 10 μL/well. […] The above reaction system was reacted for 1 hour at 37° C. shaking table (100 rpm). Control wells with no enzyme and control wells with DMSO solvent were set in each experiment. After the reaction was completed, the plates were washed three times with T-PBS. The anti-phosphotyrosine primary antibody PY99 (Santa Cruz) was added at 100 μL/well and the antibody was diluted with T-PBS containing BSA 5 mg/mL by 1:1000. The mixture was reacted for 0.5 h at 37° C. shaking table, the plates were washed three times with T-PBS. The secondary antibody which was horseradish peroxidase-labeled goat anti-mouse IgG was added at 100 μL/well (the antibody was diluted with T-PBS containing BSA 5 mg/mL by 1:2000). The mixture was reacted for 0.5 h at 37° C. shaking table, the plates were washed three times with T-PBS. 2 l/mL of OPD coloring solution was added at 100 μL/well (diluted with 0.1 M citric acid-sodium citrate buffer (pH=5.4) containing 0.03% H2O2) and dark reacted for 1 to 10 minutes at 25° C. 2 M H2SO4 was added at 50 μL/well to terminate the reaction. Reading was carried out with an adjustable wavelength microplate enzyme-labeled instrument SPECTRA MAX 190 at 490 nm wavelength.
(§2) The IC50 value was calculated by the four-parameter fitting of the suppression curve.

EGFR^wt = target: T2, EGFR^wt (Homo sapiens, UniProt P00533); assay: kinase inhibitory activity test (ELISA), EGFR^WT; type: biochemical; conditions: ATP 5 μM, 1 hour at 37° C.
T2 construct: purchased Millipore
Method: as §1, §2

[1] = system: human non-small cell lung cancer NCI-H1975 cell line; assay: SRB proliferation assay, NCI-H1975 cells; type: cell-based; conditions: NCI-H1975, SRB, 72 h, read-out: IC50 NCI-H1975
Method: (§3) Cell lines: human epidermal carcinoma A431 cell line and human non-small cell lung cancer NCI-H1975 cell line was purchased from the American Standard Biology Collection Center (ATCC).
Methods: sulforhodamine B (SRB) method, which was as follows: certain number of different tumor cells in logarithmic growth phase were inoculated on 96-well culture plates. After cultured for 24 h to cell adherence, different concentrations of the test compounds of the invention were added. Each concentration was provided with three wells, and a corresponding concentration of DMSO solvent control and a cell-free zeroing well were set. After the cells were treated with the medicine for 72 h, the culture medium was discarded and 100 μL of 10% pre-cooled trichloroacetic acid solution was added to fix the cells. After placed for 1 h at 4° C., it was washed for 5 times with distilled water and dried naturally. Then 100 μL SRB (4 mg/mL) (Sigma) solution was added and stained for 15 min at room temperature. The staining solution was discarded and washed for 5 times with 1% glacial acetic acid and dried. Finally, 150 μL of 10 mM Tris solution (pH 10.5) was added and the OD value was measured at 515 nm with adjustable wavelength microplate enzyme-labeled instrument (VERSAmax™, Molecular Device Corporation, Sunnyvale, Calif., USA). […] Based on the inhibitory effect of the 2-aminopyrimidine compounds on the growth of these cells, the half maximal inhibitory concentration (IC50) values were calculated, as shown in Table 2.

IGF-1R = target: T3, IGF-1R (Homo sapiens, UniProt P08069); assay: kinase inhibitory activity test (ELISA), IGF-1R; type: biochemical; conditions: ATP 5 μM, 1 hour at 37° C.
T3 construct: purchased Millipore
Method: The enzyme substrate poly (glutamic acid, tyrosine)4:1 (Sigma) was diluted with potassium-free PBS (10 mM sodium phosphate buffer, 150 mM NaCl, pH 7.2-7.4) to 20 μg/mL, plate coated with 125 μL/well, reacted for 12-16 hours at 37° C. After the liquid in the wells was discarded, the plates were washed three times with 200 μL/well of T-PBS (PBS containing 0.1% Tween-20), and each time for 5 minutes, and then dried for 1-2 hours in an oven at 37° C. 50 μL of ATP solution diluted with reaction buffer (50 mM HEPES pH 7.4, 50 mM MgCl2, 5 mM MnCl2, 0.2 mM Na3VO4, 1 mM DTT) was added into each well and the final concentration was 5 μM. The compounds were diluted with 1% DMSO to suitable concentrations and were added at 10 μL/well. Then different types of tyrosine kinase proteins (including EGFR^wt, EGFR^T790M/L858R and IGF-1R, purchased from Millipore) diluted with 40 μL of reaction buffer were added. The above reaction system was reacted for 1 hour at 37° C. shaking table (100 rpm). Control wells with no enzyme and control wells with DMSO solvent were set in each experiment. After the reaction was completed, the plates were washed three times with T-PBS. The anti-phosphotyrosine primary antibody PY99 (Santa Cruz) was added at 100 μL/well and the antibody was diluted with T-PBS containing BSA 5 mg/mL by 1:1000. The mixture was reacted for 0.5 h at 37° C. shaking table, the plates were washed three times with T-PBS. The secondary antibody which was horseradish peroxidase-labeled goat anti-mouse IgG was added at 100 μL/well (the antibody was diluted with T-PBS containing BSA 5 mg/mL by 1:2000). The mixture was reacted for 0.5 h at 37° C. shaking table, the plates were washed three times with T-PBS. 2 l/mL of OPD coloring solution was added at 100 μL/well (diluted with 0.1 M citric acid-sodium citrate buffer (pH=5.4) containing 0.03% H2O2) and dark reacted for 1 to 10 minutes at 25° C. 2 M H2SO4 was added at 50 μL/well to terminate the reaction. Reading was carried out with an adjustable wavelength microplate enzyme-labeled instrument SPECTRA MAX 190 at 490 nm wavelength.
as §2

[2] = system: human epidermal carcinoma A431 cell line; assay: SRB proliferation assay, A431 cells; type: cell-based; conditions: A-431, SRB, 72 h, read-out: IC50 A431
Method: as §3
Methods: sulforhodamine B (SRB) method, which was as follows: certain number of different tumor cells in logarithmic growth phase were inoculated on 96-well culture plates. After cultured for 24 h to cell adherence, different concentrations of the test compounds of the invention were added. Each concentration was provided with three wells, and a corresponding concentration of DMSO solvent control and a cell-free zeroing well were set. After the cells were treated with the medicine for 72 h, the culture medium was discarded and 100 μL of 10% pre-cooled trichloroacetic acid solution was added to fix the cells. After placed for 1 h at 4° C., it was washed for 5 times with distilled water and dried naturally. Then 100 μL SRB (4 mg/mL) (Sigma) solution was added and stained for 15 min at room temperature. The staining solution was discarded and washed for 5 times with 1% glacial acetic acid and dried. Finally, 150 μL of 10 mM Tris solution (pH 10.5) was added and the OD value was measured at 515 nm with adjustable wavelength microplate enzyme-labeled instrument (VERSAmax™, Molecular Device Corporation, Sunnyvale, Calif., USA).

T2 sequence (P00533 25-1210): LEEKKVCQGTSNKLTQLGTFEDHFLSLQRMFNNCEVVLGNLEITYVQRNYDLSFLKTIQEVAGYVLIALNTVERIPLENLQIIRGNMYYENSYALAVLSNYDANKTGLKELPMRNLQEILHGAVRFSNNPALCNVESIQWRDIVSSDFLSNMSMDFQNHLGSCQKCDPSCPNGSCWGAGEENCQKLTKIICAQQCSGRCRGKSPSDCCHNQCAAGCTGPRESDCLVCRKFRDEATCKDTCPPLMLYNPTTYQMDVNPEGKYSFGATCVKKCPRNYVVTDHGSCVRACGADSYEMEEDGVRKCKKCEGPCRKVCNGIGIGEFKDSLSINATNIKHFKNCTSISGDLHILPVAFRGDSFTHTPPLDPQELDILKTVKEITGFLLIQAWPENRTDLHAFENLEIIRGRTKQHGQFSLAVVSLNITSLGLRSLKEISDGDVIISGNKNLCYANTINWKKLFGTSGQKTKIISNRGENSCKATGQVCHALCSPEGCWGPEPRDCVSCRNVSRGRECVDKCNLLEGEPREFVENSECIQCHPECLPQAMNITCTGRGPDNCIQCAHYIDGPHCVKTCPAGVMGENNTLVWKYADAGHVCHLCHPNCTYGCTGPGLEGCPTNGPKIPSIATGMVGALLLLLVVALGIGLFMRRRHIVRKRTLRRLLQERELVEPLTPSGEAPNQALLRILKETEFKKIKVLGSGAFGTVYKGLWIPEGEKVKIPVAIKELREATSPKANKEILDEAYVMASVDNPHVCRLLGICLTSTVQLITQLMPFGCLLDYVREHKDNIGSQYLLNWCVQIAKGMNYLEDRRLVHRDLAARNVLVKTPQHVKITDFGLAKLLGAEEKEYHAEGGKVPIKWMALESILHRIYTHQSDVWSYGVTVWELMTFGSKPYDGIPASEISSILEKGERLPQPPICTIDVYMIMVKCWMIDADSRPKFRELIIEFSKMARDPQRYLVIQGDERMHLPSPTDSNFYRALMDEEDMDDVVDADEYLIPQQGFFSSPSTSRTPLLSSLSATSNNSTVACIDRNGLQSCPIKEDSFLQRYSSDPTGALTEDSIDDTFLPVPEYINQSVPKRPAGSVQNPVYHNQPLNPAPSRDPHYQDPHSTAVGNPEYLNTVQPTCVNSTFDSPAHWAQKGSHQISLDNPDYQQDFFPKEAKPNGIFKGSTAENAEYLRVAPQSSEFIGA
T3 sequence (P08069 31-1367): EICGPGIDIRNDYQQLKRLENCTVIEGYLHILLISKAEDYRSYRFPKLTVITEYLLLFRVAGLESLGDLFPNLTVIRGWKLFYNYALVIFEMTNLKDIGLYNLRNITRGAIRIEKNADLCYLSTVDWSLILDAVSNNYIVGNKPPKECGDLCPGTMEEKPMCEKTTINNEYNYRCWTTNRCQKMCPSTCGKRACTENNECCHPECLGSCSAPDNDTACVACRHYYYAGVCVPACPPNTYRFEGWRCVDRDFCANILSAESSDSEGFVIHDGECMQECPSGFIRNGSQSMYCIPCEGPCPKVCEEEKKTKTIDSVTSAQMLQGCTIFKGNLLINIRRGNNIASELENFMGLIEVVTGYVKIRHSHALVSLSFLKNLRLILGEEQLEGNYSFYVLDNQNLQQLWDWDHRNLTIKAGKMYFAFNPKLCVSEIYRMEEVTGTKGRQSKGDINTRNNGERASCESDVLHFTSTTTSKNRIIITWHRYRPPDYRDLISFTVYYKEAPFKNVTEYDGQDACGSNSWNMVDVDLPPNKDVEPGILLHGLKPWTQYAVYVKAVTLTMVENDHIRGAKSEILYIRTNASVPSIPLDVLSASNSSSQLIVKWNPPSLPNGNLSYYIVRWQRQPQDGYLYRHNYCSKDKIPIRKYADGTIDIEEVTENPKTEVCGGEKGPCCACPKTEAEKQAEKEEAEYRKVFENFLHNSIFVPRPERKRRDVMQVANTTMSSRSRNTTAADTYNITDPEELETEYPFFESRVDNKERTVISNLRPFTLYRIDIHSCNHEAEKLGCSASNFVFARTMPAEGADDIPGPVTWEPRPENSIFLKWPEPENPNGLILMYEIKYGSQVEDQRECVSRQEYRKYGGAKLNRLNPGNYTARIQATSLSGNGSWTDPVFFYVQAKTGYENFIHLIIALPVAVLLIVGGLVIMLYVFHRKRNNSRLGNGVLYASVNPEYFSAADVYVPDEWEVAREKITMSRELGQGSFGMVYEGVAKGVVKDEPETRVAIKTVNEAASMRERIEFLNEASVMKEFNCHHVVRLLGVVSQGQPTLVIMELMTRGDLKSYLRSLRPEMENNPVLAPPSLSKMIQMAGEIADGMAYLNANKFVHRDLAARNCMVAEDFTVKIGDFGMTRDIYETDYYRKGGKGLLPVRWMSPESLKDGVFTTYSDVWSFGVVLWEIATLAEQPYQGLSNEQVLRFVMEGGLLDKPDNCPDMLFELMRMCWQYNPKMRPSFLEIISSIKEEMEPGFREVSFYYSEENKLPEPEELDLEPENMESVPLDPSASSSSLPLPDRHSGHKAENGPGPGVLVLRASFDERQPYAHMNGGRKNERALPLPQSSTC
T1 sequence (P00533 25-1210 T790M/L858R): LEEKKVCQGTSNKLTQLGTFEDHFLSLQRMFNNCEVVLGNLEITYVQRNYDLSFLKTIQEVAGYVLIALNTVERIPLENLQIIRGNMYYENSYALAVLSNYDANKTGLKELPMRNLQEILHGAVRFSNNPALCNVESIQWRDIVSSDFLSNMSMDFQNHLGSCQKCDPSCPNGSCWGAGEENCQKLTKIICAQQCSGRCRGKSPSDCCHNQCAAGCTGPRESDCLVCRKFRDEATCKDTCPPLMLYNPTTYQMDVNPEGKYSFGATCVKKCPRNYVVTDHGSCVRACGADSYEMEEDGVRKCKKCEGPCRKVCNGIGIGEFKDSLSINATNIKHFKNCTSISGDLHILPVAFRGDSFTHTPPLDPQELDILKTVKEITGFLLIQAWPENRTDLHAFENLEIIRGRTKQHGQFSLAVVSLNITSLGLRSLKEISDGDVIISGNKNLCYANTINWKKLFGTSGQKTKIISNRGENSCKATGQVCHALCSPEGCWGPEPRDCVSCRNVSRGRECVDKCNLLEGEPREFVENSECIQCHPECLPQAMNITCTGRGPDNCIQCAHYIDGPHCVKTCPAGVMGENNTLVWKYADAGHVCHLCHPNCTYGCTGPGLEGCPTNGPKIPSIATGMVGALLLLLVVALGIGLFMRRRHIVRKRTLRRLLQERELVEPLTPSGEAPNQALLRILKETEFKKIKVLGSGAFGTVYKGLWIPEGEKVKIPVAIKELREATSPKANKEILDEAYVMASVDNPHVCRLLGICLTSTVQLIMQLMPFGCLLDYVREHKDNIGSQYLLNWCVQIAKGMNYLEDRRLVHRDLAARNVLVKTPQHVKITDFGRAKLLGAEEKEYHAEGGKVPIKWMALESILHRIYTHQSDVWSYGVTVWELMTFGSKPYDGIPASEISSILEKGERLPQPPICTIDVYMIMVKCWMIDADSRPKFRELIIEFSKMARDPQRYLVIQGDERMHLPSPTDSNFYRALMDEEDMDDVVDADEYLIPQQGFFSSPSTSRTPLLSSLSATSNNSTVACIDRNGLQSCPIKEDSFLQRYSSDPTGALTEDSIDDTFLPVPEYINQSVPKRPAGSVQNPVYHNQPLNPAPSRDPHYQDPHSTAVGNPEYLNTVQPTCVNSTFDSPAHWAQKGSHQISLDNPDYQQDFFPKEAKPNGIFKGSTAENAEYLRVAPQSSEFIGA

Compound	IC50 (EGFR^T790M/L858R) [nM]	IC50 (EGFR^wt) [nM]	IC50 [1] [nM]	IC50 (IGF-1R) [nM]	IC50 [2] [nM]
COc1ccc(NC(=O)/C=C/CN(C)C)cc1Nc1ncc(OC)c(Nc2ccc3ccccc3c2)n1 [CCB145268, (E)-N-((3-((5-methoxy-4-((naphthalen-2-yl)amino))pyrimidin-2-yl)amino)-4-methoxyphenyl)-4-(dimethylamino)-2-butenamide]	102	225	1160	182	1110
COc1ccc(NC(=O)/C=C/CN(C)C)cc1Nc1ncc(C(F)(F)F)c(Nc2ccc3ccccc3c2)n1 [CCB145274, (E)-N-((3-((5-trifluoromethyl-4-((naphthalen-2-yl)amino))pyrimidin-2-yl)amino)-4-methoxyphenyl)-4-(dimethylamino)-2-butenamide]	31.3	2070	682	41	1220
COc1ccc(NC(=O)/C=C/CN(C)C)cc1Nc1ncc(C(C)C)c(Nc2ccc3ccccc3c2)n1 [CCB145283, (E)-N-((3-((5-isopropyl-4-((naphthalen-2-yl)amino))pyrimidin-2-yl)amino)-4-methoxyphenyl)-4-(dimethylamino)-2-butenamide]	151	2290	860	85.2	1040
COc1ccc(NC(=O)/C=C/CN(C)C)cc1Nc1ncc(Br)c(Nc2ccc3ccccc3c2)n1 [CCB145286, (E)-N-((3-((5-bromo-4-((naphthalen-2-yl)amino))pyrimidin-2-yl)amino)-4-methoxyphenyl)-4-(dimethylamino)-2-butenamide]	22.5	254	416	20.5	1120
COc1ccc(NC(=O)/C=C/CN(C)C)cc1Nc1ncc(F)c(Nc2ccc3ccccc3c2)n1 [CCB145287, (E)-N-((3-((5-fluoro-4-((naphthalen-2-yl)amino))pyrimidin-2-yl)amino)-4-methoxyphenyl)-4-(dimethylamino)-2-butenamide]	32	131	375	151	611
COc1ccc(NC(=O)/C=C/CN(C)C)cc1Nc1ncc(C)c(Nc2ccc3ccccc3c2)n1 [CCB145289, (E)-N-((3-((5-methyl-4-((naphthalen-2-yl)amino))pyrimidin-2-yl)amino)-4-methoxyphenyl)-4-(dimethylamino)-2-butenamide]	72.9	232	1000	103	839
COc1ccc(NC(=O)/C=C/CN(C)C)cc1Nc1ncc(Cl)c(Sc2ccc3ccccc3c2)n1 [CCB145291, (E)-N-((3-((5-chloro-4-((naphthalen-2-yl)sulfenyl))pyrimidin-2-yl)amino)-4-methoxyphenyl)-4-(dimethylamino)-2-butenamide]	159	≥ 10000	2780	347	11100
COc1ccc(NC(=O)/C=C/CN(C)C)cc1Nc1ncc(C#N)c(Nc2ccc3ccccc3c2)n1 [CCB145293, (E)-N-((3-((5-cyano-4-((naphthalen-2-yl)amino))pyrimidin-2-yl)amino)-4-methoxyphenyl)-4-(dimethylamino)-2-butenamide]	22.6	173	327	193	1300
COc1ccc(NC(=O)/C=C/CN(C)C)cc1Nc1ncc(Cl)c(N(C)c2ccc3ccccc3c2)n1 [CCB145295, (E)-N-((3-((5-chloro-4-(N-methyl-(naphthalen-2-yl)amino))pyrimidin-2-yl)amino)-4-methoxyphenyl)-4-(dimethylamino)-2-butenamide]	47.2	93.9	1180	> 1000	1080
CN(C)C/C=C/C(=O)Nc1ccc(F)c(Nc2ncc(Cl)c(Nc3ccc4ccccc4c3)n2)c1 [CCB145329]	55.7	1400	1060	198	20500
CN(C)C/C=C/C(=O)Nc1ccc(F)c(Nc2ncc(Br)c(Nc3ccc4ccccc4c3)n2)c1 [CCB145330, (E)-N-((3-((5-bromo-4-((naphthalen-2-yl)amino))pyrimidin-2-yl)amino)-4-fluorophenyl)-4-(dimethylamino)-2-butenamide]	32.4	4150	948	146	12800
CN(C)C/C=C/C(=O)Nc1cccc(Nc2ncc(Cl)c(Nc3ccc4ccccc4c3)n2)c1 [CCB145333, (E)-N-((3-((5-chloro-4-((naphthalen-2-yl)amino))pyrimidin-2-yl)amino)phenyl)-4-(dimethylamino)-2-butenamide]	24.2	4750	632	170	6220
CN(C)C/C=C/C(=O)Nc1cccc(Nc2ncc(Br)c(Nc3ccc4ccccc4c3)n2)c1 [CCB145335, (E)-N-((3-((5-bromo-4-((naphthalen-2-yl)amino))pyrimidin-2-yl)amino)phenyl)-4-(dimethylamino)-2-butenamide]	35.7	3890	2480	90.6	2590
